Laboratory results from ChEMBL document CHEMBL5096191 (J Med Chem, 2021).

What was measured:
Type in all cases: functional, cell-based
Cannabinoid receptor 2 [1] = target: T1, Cannabinoid receptor 2 (Homo sapiens, UniProt P34972); experiment: Positive allosteric modulation of JWH-133-induced agonist activity at wild type CB2 receptor (unknown origin) stably expressed in HEK293T cells assessed as inhibition of forskolin-stimulated cAMP levels preincubated for 15 mins followed by forskolin addition incubated for 15 mins by HTRF assay relative to control; details: filed as positive allosteric modulator, time 30.0 min
T1 sequence (P34972 whole entry): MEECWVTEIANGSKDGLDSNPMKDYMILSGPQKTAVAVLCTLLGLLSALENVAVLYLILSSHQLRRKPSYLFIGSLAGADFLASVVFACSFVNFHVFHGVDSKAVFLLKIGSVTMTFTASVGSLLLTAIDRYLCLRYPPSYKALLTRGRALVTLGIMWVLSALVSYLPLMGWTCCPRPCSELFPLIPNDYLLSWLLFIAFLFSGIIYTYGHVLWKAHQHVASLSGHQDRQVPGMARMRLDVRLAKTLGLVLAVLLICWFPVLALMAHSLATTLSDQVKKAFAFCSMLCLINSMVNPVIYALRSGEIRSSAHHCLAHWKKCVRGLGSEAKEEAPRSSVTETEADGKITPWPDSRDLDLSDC

Cannabinoid receptor 2 [2] = target: T1, Cannabinoid receptor 2; experiment: Positive allosteric modulation of JWH-133-induced agonist activity at wild type CB2 receptor (unknown origin) stably expressed in HEK293T cells assessed as decrease in cAMP levels preincubated for 15 mins followed by forskolin addition incubated for 15 mins by HTRF assay relative to JWH-133; details: filed as positive allosteric modulator, time 30.0 min
Cannabinoid receptor 2 [3] = target: T1, Cannabinoid receptor 2; experiment: Positive allosteric modulation of JWH-133-induced agonist activity at wild type CB2 receptor (unknown origin) stably expressed in HEK293T cells assessed as inhibition of forskolin-stimulated cAMP levels preincubated for 15 mins followed by forskolin addition incubated for 15 mins by HTRF assay
Cannabinoid receptor 2 [4] = target: T1, Cannabinoid receptor 2; experiment: Negative allosteric modulation of JWH-133-induced agonist activity at wild type CB2 receptor (unknown origin) stably expressed in HEK293T cells assessed as decrease in cAMP levels preincubated for 15 mins followed by forskolin addition incubated for 15 mins by HTRF assay relative to JWH-133; details: time 30.0 min
Cannabinoid receptor 2 [5] = target: T1, Cannabinoid receptor 2; experiment: Partial agonist activity at wild type CB2 receptor (unknown origin) expressed in HEK293T assessed as increase in picometer shifts of reflected light wavelengths by DMR assay relative to control; details: filed as partial agonist
[6] = test system: Cannabinoid receptor 2 (Homo sapiens), P34972 [V113M]; experiment: Partial agonist activity at CBR2 V1133.32M mutant (unknown origin) expressed in HEK293T assessed as increase in picometer shifts of reflected light wavelengths by DMR assay relative to control
Cannabinoid receptor 2 (Homo sapiens), P34972 [V113M], sequence (P34972 whole entry V113M): as the sequence (P34972 whole entry) above, with V113M counted along it

Cannabinoid receptor 2 [7] = target: T1, Cannabinoid receptor 2; experiment: Partial agonist activity at wild type CB2 receptor (unknown origin) stably expressed in HEK293T assessed as decrease in forskolin induced cAMP level preincubated for 15 mins followed by forskolin addition incubated for 15 mins by HTRF assay relative to control; details: filed as partial agonist, time 30.0 min
[8] = test system: Cannabinoid receptor 2 (Homo sapiens), P34972 [V113M]; experiment: Partial agonist activity at CBR2 V1133.32M mutant (unknown origin) expressed in HEK293T assessed as increase in ERK1/2 phosphorylation incubated for 7 mins by AlphaScreenSureFire method relative to control; details: filed as partial agonist
[9] = test system: Cannabinoid receptor 2 (Homo sapiens), P34972 [V113M]; experiment: Partial agonist activity at CBR2 V1133.32M mutant (unknown origin) stably expressed in HEK293T assessed as decrease in forskolin induced cAMP level preincubated for 15 mins followed by forskolin addition incubated for 15 mins by HTRF assay relative to control; details: filed as partial agonist, time 30.0 min
Cannabinoid receptor 2 [10] = target: T1, Cannabinoid receptor 2; experiment: Partial agonist activity at wild type CB2 receptor (unknown origin) expressed in HEK293T assessed as increase in ERK1/2 phosphorylation incubated for 7 mins by AlphaScreenSureFire method relative to control; details: filed as partial agonist

| SMILES | Emax (Cannabinoid receptor 2 [1]) [%] | %max (Cannabinoid receptor 2 [2]) [%] | EC50 (Cannabinoid receptor 2 [3]) [µM] | other results |
| --- | --- | --- | --- | --- |
| C=C(C)[C@@H]1CCC(C)=C[C@H]1c1c(O)cc(CC)cc1O | 45.3 | 124 | 0.0316 |  |
| C=C(C)[C@@H]1CCC(C)=C[C@H]1c1c(O)cc(CCCC)cc1O | 64.1 |  | 0.2 | %max (Cannabinoid receptor 2 [4]; filed as negative allosteric modulator): 82% |
| C=C(C)[C@@H]1CCC(C)=C[C@H]1c1c(O)cc(CCCCC)cc1O | 67.8 |  |  | Emax (Cannabinoid receptor 2 [5]): 49.1%; Emax [6]: 5.3%; Emax (Cannabinoid receptor 2 [7]): 74%; Emax [8]: 186%; Emax [9]: 89.1%; Emax (Cannabinoid receptor 2 [10]): 156% |
| C=C(C)[C@@H]1CCC(C)=C[C@H]1c1c(O)cc(CCCCCC)cc1O | 83.5 |  | 0.126 | %max (Cannabinoid receptor 2 [4]): 38% |
| C=C(C)[C@@H]1CCC(C)=C[C@H]1c1c(O)cc(CCC)cc1O [CANNABIDIVARIN] | 48 | 118 | 0.0126 |  |
